Measured values reported in patent US12344631B2, “C17 polar-substituted heteroaromatic synthetic triterpenoids and methods of use thereof” (REATA PHARMACEUTICALS, INC., priority 2019, dated 2025).

Assays:
RAW 264.7 cells = assay: Nitric oxide suppression assay (IFNγ-induced NO production); type: cell-based, mouse; conditions: for IC50: Mus musculus, RAW264.7, RAW 264.7 cells, 2 h pretreatment, 20 ng/mL interferon gamma 24 h, nitrite by Griess, read-out: NO IC50 (nM) (Mean ± SD); for NO IC50 Relative to RTA 402 (fold) (Mean ± SD): average of ratios from replicate experiments, benchmark RTA 402
Experimental: Tissue Culture. RAW 264.7, a mouse macrophage cell line, was obtained from American Type Culture Collection (Manassas VA) and maintained in the log phase of growth in Roswell Park Memorial Institute Medium 1640 (RPMI 1640) supplemented with 10% heat inactivated fetal bovine serum (FBS) and 1% penicillin-streptomycin. Cells were cultured and maintained in a humidified incubator at 37° C. under 5% CO2. Cells were sub-cultured every 3 days. […] All cell culture supplies were obtained from Life Technologies (Grand Island, NY) and VWR (Radnor, PA). Nitric Oxide Suppression Assay. RAW 264.7 cells were plated 1 day in advance of experimental treatments at a concentration of 30,000 cells per well onto Falcon-96 well clear bottom plates (Corning, NY) in a total volume of 200 μL per well using RPMI 1640 supplemented with 0.5% fetal bovine serum and 1% penicillin-streptomycin. The next day, cells were pretreated with compounds serially diluted from 1000× stocks. All compounds were dissolved in dimethyl sulfoxide (DMSO) at 10 mM stock solutions. Compounds were subsequently diluted in DMSO and RPMI 1640. Each well received a final concentration of 0.1% DMSO. Cells were pretreated for 2 hours and incubation at 37° C., followed by treatment with 20 ng/mL of interferon gamma (R&D Systems, Minneapolis, MN) per well for 24 hours. […] Afterwards, 50 μL of cell culture supernatant was transferred from each well into a new Falcon-96 well clear bottom plate. […] Afterwards, air bubbles were removed using ethanol vapor and absorbance was measured using a Spectramax M2e plate reader with a wavelength set to 525 nm. Viability was assessed using WST-1 cell proliferation reagent from Roche (Basel, Switzerland). After media was removed for the Nitric Oxide suppression assay, 15 μL of WST-1 reagent was added to each well of cells. Plates were briefly mixed on an orbital shaker and the cells were incubated at 37° C. for 30 minutes. Absorbance was measured using a Spectramax M2e plate reader with wavelengths set to 440 nm and 700 nm. For the ability of compounds to suppress the increase in nitric oxide release caused by interferon gamma, the absolute amount of nitrite that was produced in each well was extrapolated from the nitrite standards using a linear regression fit. All values were then normalized to the DMSO-interferon gamma treated wells and plotted as percent nitric oxide. IC50 values were calculated with a dependence on WST1 viability using Excel and/or GraphPad Prism (San Diego, CA).

[1] = system: AML-12 hepatocyte cell line; assay: Glutathione assay (total glutathione, GSH-Glo); type: cell-based, mouse; conditions: for EC50: Mus musculus, AML12, AML-12 cells, 24 hours, total glutathione, read-out: GSH EC50 (nM) (Mean ± SD); for GSH EC50 Relative to RTA 402 (fold) (Mean ± SD): benchmark RTA 402
Experimental: The effect of compound treatment on total glutathione levels was evaluated in the mouse AML-12 hepatocyte cell line. Glutathione—a tripeptide consisting of cysteine, glutamate, and glycine—is the major thiol-containing protein within the cell and regulates cellular redox balance. Glutathione also plays important roles in detoxification, protein glutathionylation, and iron-sulfur cluster biogenesis (Bachhawat and Yadav, 2018). Nrf2 regulates the expression of many genes involved in glutathione synthesis and metabolism, including both subunits of glutamate cysteine ligase (GCL), the enzyme that catalyzes the rate limiting step of glutathione biosynthesis (Thimmulappa et al., 2002). […] The next day, cells were treated with vehicle (DMSO) or test compound (0.03 nM to 1000 nM). Each well received a final concentration of 0.1% DMSO. Cells were incubated at 37° C., 5% CO2 for 24 hours. Total glutathione concentrations were measured using the GSH-Glo Glutathione Assay kit (Promega) according to the manufacturer's instructions. Briefly, a standard curve was prepared by serially diluting the provided glutathione solution. […] After a 30-minute incubation at room temperature, 100 μL of Luciferin detection reagent was added to all sample and standard wells and incubated for 15 minutes. Luminescence was measured using a PHERAstar plate reader. The EC50 value was determined using Excel and GraphPad Prism software. The basal concentration of glutathione was set to 0% and the highest concentration of glutathione produced following treatment with a test compound was set to 100% and a dose-response curve was generated. The dose-response curve was fit using nonlinear regression analysis and used to extrapolate the EC50 value.

[2] = system: AREc32 reporter cell line (antioxidant response element of rat Gsta2, Nrf2 target gene); assay: AREc32 luciferase reporter activation; type: cell-based, human; conditions: for AREc32 EC2X Relative to RTA 402 (fold) (Mean ± SD): average of ratios from replicate experiments, benchmark RTA 402; for AREc32 Relative to CC in Same Experiment (Mean ± SD): average of ratios from experiments with direct comparisons; for EC (2-fold): human, Arec32, 19 h, concentration increasing luminescence signal 2-fold above vehicle, nineteen hours, read-out: AREc32 EC2X (nM) (Mean ± SD)
Experimental: […] The effect of several compounds disclosed herein on luciferase reporter activation was assessed in the AREc32 reporter cell line (see Table 10 and Table 11). This cell line is derived from human breast carcinoma MCF-7 cells and is stably transfected with a luciferase reporter gene under the transcriptional control of eight copies of the antioxidant response element from the rat Gsta2 gene, an Nrf2 target gene ([…] et al., 1990). […] Twenty-four hours after plating, cells were treated with vehicle (DMSO) or test compounds at concentrations ranging from 0.03 to 1000 nM for nineteen hours. Media was removed and 100 μL of 1:1 mixture of the One-Glo Luciferase assay reagent and culture medium was added to each well. After incubation for 5 min at room temperature, the luminescence signal was measured on a PHERAstar plate reader. The EC2X value was determined using Excel and GraphPad Prism software. The fold increase in luminescence signal for cells treated with each concentration of compound relative to cells treated with vehicle was determined and a dose-response curve was generated. The dose-response curve was fit using nonlinear regression analysis and used to extrapolate the EC2X value.

CYP3A4 = CYP3A4 (Homo sapiens, UniProt P08684); assay: CYP3A4 (midazolam) inhibition in human liver microsomes; conditions: for CYP3A4 inhibition compared with historical data for RTA 402 and RTA 408: comparable conditions (FIG. 1); for inhibition at 10 min, 1 μM: human, probe midazolam (5 μM); for inhibition at 10 min, 1 μM / CYP3A4 (Midazolam) % Inhibition: human liver microsomes; for CYP3A4 inhibition lower than the corresponding unsubstituted compound: vs CC2, CC1 or CC3; for CYP3A4 inhibition lower than the corresponding unsubstituted compound / CYP3A4 (Midazolam) % Inhibition: 1 μM; for CYP3A4 (Midazolam) % Inhibition: historical data performed under comparable conditions
Sequence of CYP3A4 (P08684 whole entry): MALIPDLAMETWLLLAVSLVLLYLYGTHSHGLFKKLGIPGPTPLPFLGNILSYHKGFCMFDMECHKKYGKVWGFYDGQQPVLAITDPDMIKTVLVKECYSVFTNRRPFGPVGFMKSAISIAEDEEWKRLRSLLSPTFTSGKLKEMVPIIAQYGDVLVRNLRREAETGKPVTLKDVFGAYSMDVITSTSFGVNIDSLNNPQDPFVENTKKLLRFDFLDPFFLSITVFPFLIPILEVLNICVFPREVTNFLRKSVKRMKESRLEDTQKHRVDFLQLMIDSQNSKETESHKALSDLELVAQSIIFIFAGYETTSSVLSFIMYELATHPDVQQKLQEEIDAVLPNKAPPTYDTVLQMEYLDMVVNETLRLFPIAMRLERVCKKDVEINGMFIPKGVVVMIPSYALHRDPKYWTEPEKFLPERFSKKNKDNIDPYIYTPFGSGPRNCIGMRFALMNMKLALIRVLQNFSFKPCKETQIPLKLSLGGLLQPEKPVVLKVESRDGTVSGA

| SMILES | IC50 (RAW 264.7 cells) | NO IC50 Relative to RTA 402 (fold) (Mean ± SD) (RAW 264.7 cells) | EC50 [1] | GSH EC50 Relative to RTA 402 (fold) (Mean ± SD) [1] | AREc32 EC2X Relative to RTA 402 (fold) (Mean ± SD) [2] | AREc32 Relative to CC in Same Experiment (Mean ± SD) ([2]; comparison compound CC2) | EC (2-fold) [2] | CYP3A4 inhibition compared with historical data for RTA 402 and RTA 408 (CYP3A4) | inhibition at 10 min, 1 μM (CYP3A4) | CYP3A4 inhibition lower than the corresponding unsubstituted compound (CYP3A4) | CYP3A4 (Midazolam) % Inhibition (CYP3A4) | AREc32 Relative to CC in Same Experiment (Mean ± SD) ([2]; comparison compound CC3) |
| --- | --- | --- | --- | --- | --- | --- | --- | --- | --- | --- | --- | --- |
| CC1(C)CC[C@]2(c3noc(CN)n3)CC[C@]3(C)[C@H](C(=O)C=C4[C@@]5(C)C=C(C#N)C(=O)C(C)(C)[C@@H]5CC[C@]43C)[C@@H]2C1 [Compound T2] | 1.15 nM | 0.38 ± 0.09 fold | 1.21 ± 1.15 nM | 0.47 ± 0.38 fold | 0.28 ± 0.04 fold | 0.43 ± 0.00 | 3.67 ± 0.28 nM | reduced CYP3A4 inhibition | 21.4% | 53% |  |  |
| COC(=O)[C@]12CCC(C)(C)C[C@H]1[C@H]1C(=O)C=C3[C@@]4(C)C=C(C#N)C(=O)C(C)(C)[C@@H]4CC[C@@]3(C)[C@]1(C)CC2 [RTA 402, Bardoxolone methyl, reference compound] |  |  |  |  |  |  |  |  |  |  | 48.4% |  |
| CC1(C)CC[C@]2(c3noc(CF)n3)CC[C@]3(C)[C@H](C(=O)C=C4[C@@]5(C)C=C(C#N)C(=O)C(C)(C)[C@@H]5CC[C@]43C)[C@@H]2C1 [Compound T1] | 1.24 nM | 0.52 ± 0.12 fold | 0.57 ± 0.22 nM | 0.35 ± 0.12 fold | 0.46 ± 0.13 fold | 0.62 ± 0.07 | 6.2 ± 1.37 nM | reduced CYP3A4 inhibition | 29.1% | 36% |  |  |
| CC1(C)CC[C@]2(NC(=O)C(C)(F)F)CC[C@]3(C)[C@H](C(=O)C=C4[C@@]5(C)C=C(C#N)C(=O)C(C)(C)[C@@H]5CC[C@]43C)[C@@H]2C1 [RTA 408, omaveloxolone, reference compound] |  |  |  |  |  |  |  |  |  |  | 56.6% |  |
| Cn1nnc([C@]23CCC(C)(C)C[C@H]2[C@H]2C(=O)C=C4[C@@]5(C)C=C(C#N)C(=O)C(C)(C)[C@@H]5CC[C@@]4(C)[C@]2(C)CC3)n1 [Compound T21] | 1.89 ± 0.67 nM | 0.76 ± 0.36 fold | 3.18 ± 2.22 nM | 0.95 ± 0.34 fold | 1.67 ± 0.15 fold |  | 16.2 ± 4.2 nM |  |  |  |  |  |
| CC1(C)CC[C@]2(c3nc(C(F)F)no3)CC[C@]3(C)[C@H](C(=O)C=C4[C@@]5(C)C=C(C#N)C(=O)C(C)(C)[C@@H]5CC[C@]43C)[C@@H]2C1 [Compound T43] | 6.45 ± 1.29 nM | 1.90 ± 0.49 fold | 3.29 ± 0.55 nM | 1.60 ± 0.05 fold | 0.62 ± 0.09 fold | 1.09 ± 0.09 | 9.92 ± 2.32 nM |  |  |  |  |  |
| CCc1nc([C@]23CCC(C)(C)C[C@H]2[C@H]2C(=O)C=C4[C@@]5(C)C=C(C#N)C(=O)C(C)(C)[C@@H]5CC[C@@]4(C)[C@]2(C)CC3)no1 [Compound T24] | 9.21 nM | 2.56 ± 0.62 fold | 6.11 ± 2.23 nM | 2.53 ± 0.52 fold | 2.50 ± 0.66 fold |  | 32.2 ± 2.59 nM |  |  |  |  |  |
| C[C@@H]1C(=O)C(C#N)=C[C@]2(C)C3=CC(=O)[C@@H]4[C@@H]5CC(C)(C)CC[C@]5(c5nc(C(F)F)no5)CC[C@@]4(C)[C@]3(C)CC[C@@H]12 [Compound T35] | 5.48 ± 3.04 nM | 1.21 ± 0.21 fold | 1.99 ± 0.42 nM | 1.02 ± 0.04 fold | 0.73 ± 0.14 fold |  | 10.7 ± 1.02 nM |  |  |  |  | 1.66 ± 0.31 |
| CC1(C)CC[C@]2(c3nnc(C(F)(F)F)o3)CC[C@]3(C)[C@H](C(=O)C=C4[C@@]5(C)C=C(C#N)C(=O)C(C)(C)[C@@H]5CC[C@]43C)[C@@H]2C1 [Compound T45] | 12.9 ± 6.38 nM | 3.81 ± 0.34 fold | 8 ± 1.37 nM | 4.14 ± 0.35 fold | 1.95 ± 0.57 fold |  | 29.1 ± 2.09 nM |  |  |  |  |  |
| CC1(C)CC[C@]2(c3noc(C4CC4)n3)CC[C@]3(C)[C@H](C(=O)C=C4[C@@]5(C)C=C(C#N)C(=O)C(C)(C)[C@@H]5CC[C@]43C)[C@@H]2C1 [Compound T25] | 11.2 ± 2.09 nM | 3.08 ± 1.54 fold | 9.07 ± 1.55 nM | 3.36 ± 0.34 fold | 4.39 ± 0.23 fold |  | 44 ± 1.2 nM |  |  |  |  |  |
| CC1(C)CC[C@]2(c3noc(C(F)(F)F)n3)CC[C@]3(C)[C@H](C(=O)C=C4[C@@]5(C)C=C(C#N)C(=O)C(C)(C)[C@@H]5CC[C@]43C)[C@@H]2C1 [Compound T40] | 24.2 ± 7.64 nM | 7.76 ± 2.19 fold | 18.3 ± 2.19 nM | 8.96 ± 0.68 fold | 4.76 ± 0.93 fold |  | 64.9 ± 12.6 nM |  |  |  |  |  |
| CCc1noc([C@]23CCC(C)(C)C[C@H]2[C@H]2C(=O)C=C4[C@@]5(C)C=C(C#N)C(=O)C(C)(C)[C@@H]5CC[C@@]4(C)[C@]2(C)CC3)n1 [Compound T23] | 4.85 nM | 1.93 ± 0.54 fold | 3.26 ± 0.51 nM | 2.05 ± 0.44 fold | 1.43 ± 0.26 fold | 2.41 ± 0.42 | 20.2 ± 2.51 nM |  |  |  |  |  |
| COCCc1nc([C@]23CCC(C)(C)C[C@H]2[C@H]2C(=O)C=C4[C@@]5(C)C=C(C#N)C(=O)C(C)(C)[C@@H]5CC[C@@]4(C)[C@]2(C)CC3)no1 [Compound T6] | 2.95 ± 0.11 nM | 0.79 ± 0.29 fold | 2.9 ± 0.96 nM | 1.07 ± 0.28 fold | 1.77 ± 0.15 fold |  | 17.66 ± 0.1 nM |  |  |  |  |  |
